pIC50: −log10 of the molar value. Some results are limits rather than exact numbers.

In the test the target is T1, G1 APOL1 (Homo sapiens, UniProt O14791, I384M/S342G).
T1 construct: expressed in transfected cells
T1 sequence (O14791 28-398 S342G/I384M): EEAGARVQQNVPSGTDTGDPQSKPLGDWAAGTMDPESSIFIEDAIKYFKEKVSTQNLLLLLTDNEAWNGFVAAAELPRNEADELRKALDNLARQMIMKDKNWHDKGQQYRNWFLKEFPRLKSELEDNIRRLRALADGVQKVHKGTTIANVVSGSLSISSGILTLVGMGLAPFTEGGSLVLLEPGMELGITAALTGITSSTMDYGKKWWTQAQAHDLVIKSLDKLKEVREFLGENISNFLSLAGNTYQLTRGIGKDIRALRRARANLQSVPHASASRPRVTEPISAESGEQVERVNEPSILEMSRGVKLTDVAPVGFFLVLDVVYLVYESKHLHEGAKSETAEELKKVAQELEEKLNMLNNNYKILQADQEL
Kind of test: Acute APOL1 Thallium Assay with Inducible Stable Clones of HEK 293 Cells. The settings on record: HEK 293 inducible stable clones, G1 APOL1; read-out: Thallium Assay (IC50). The format is cell-based. The method, boiled down: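 Pore activity was read as the fluorescence increase from Tl+ entering cells loaded with an AM-ester thallium indicator dye. The cells were tetracycline-inducible HEK293 T-Rex expressing G1 APOL1 (clone DC3.25), induced when plated at 26000 per well and incubated at 37° C.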
For the compound `C[C@H](O)[C@H](CO)NC(=O)OCCc1c(-c2ccc(F)cc2)[nH]c2c(F)cc(F)cc12` [Compound 442], the pIC50 (as a rule, the IC50 on a negative log10 scale, so that one unit is a factor of ten) was greater than 6.60.
On to `O=C(NCCO)OCCc1c(-c2ccc(F)cc2)[nH]c2c(F)cc(F)cc12` [Compound 443], for which the pIC50 was greater than 6.60.
Take `COC[C@H](C)NC(=O)OCCc1c(-c2ccc(F)cc2)[nH]c2c(F)cc(F)cc12` [Compound 444]: the pIC50 was greater than 6.60.
Take `C[C@H](CO)NC(=O)OCCc1c(-c2ccc(F)cc2)[nH]c2c(F)cc(F)cc12` [Compound 445]: the pIC50 was greater than 6.60.
For the compound `CC[C@@H](CO)NC(=O)OCCc1c(-c2ccc(F)cc2)[nH]c2c(F)cc(F)cc12` [Compound 446], the pIC50 is greater than 6.60.
Turning to `NC(=O)[C@@H](CO)NC(=O)OCCc1c(-c2ccc(F)cc2)[nH]c2c(F)cc(F)cc12` [Compound 447], the pIC50 is greater than 6.60.
Consider `O=C(N[C@@H]1CCNC1=O)OCCc1c(-c2ccc(F)cc2)[nH]c2c(F)cc(F)cc12` [Compound 448], for which the negative logarithm of the IC50 (pIC50) was greater than 6.60.
With `O=C(NCC(F)F)OCCc1c(-c2ccc(F)cc2)[nH]c2c(F)cc(F)cc12` [Compound 449] the figure was greater than 6.60; with `C[C@@H](O)CNC(=O)OCCc1c(-c2ccc(F)cc2)[nH]c2c(F)cc(F)cc12` [Compound 450], greater than 6.60.
Turning to `O=C(NC(CO)C1CC1)OCCc1c(-c2ccc(F)cc2)[nH]c2c(F)cc(F)cc12` (stereo not shown) [Compound 451], the pIC50 is greater than 6.60.
As to `NC(=O)CNC(=O)OCCc1c(-c2ccc(F)cc2)[nH]c2c(F)cc(F)cc12` [Compound 452], the pIC50 is greater than 6.60.
In the case of `C[C@@H](O)[C@@H](CO)NC(=O)OCCc1c(-c2ccc(F)cc2)[nH]c2c(F)cc(F)cc12` [Compound 454], the pIC50 was 6.00 to 6.60.
For the compound `CCOCCNC(=O)OCCc1c(-c2ccc(F)cc2)[nH]c2c(F)cc(F)cc12` [Compound 455], the pIC50 was 6.00 to 6.60.
With `N#CC(NC(=O)OCCc1c(-c2ccc(F)cc2)[nH]c2c(F)cc(F)cc12)C(N)=O` (stereo not shown) [Compound 456], the pIC50 is 6.00 to 6.60.
For `CC(C)(O)CCNC(=O)OCCc1c(-c2ccc(F)cc2)[nH]c2c(F)cc(F)cc12` [Compound 458] the value was 6.00 to 6.60; for `CC(C)[C@@H](CO)NC(=O)OCCc1c(-c2ccc(F)cc2)[nH]c2c(F)cc(F)cc12` [Compound 459], 6.00 to 6.60; for `C[C@H](O)CNC(=O)OCCc1c(-c2ccc(F)cc2)[nH]c2c(F)cc(F)cc12` [Compound 462], 6.00 to 6.60.
As to `O=C(NC1CCOC1)OCCc1c(-c2ccc(F)cc2)[nH]c2c(F)cc(F)cc12` (stereo not shown) [Compound 463], the pIC50 was 6.00 to 6.60.
Consider `O=C(N[C@H]1C[C@H](O)C1)OCCc1c(-c2ccc(F)cc2)[nH]c2c(F)cc(F)cc12` [Compound 464], for which the pIC50 was 6.00 to 6.60.
As to `O=C(NC1CC(F)(F)C1)OCCc1c(-c2ccc(F)cc2)[nH]c2c(F)cc(F)cc12` [Compound 465], the pIC50 was 6.00 to 6.60.
Regarding `O=C(NC1CC(O)C1)OCCc1c(-c2ccc(F)cc2)[nH]c2c(F)cc(F)cc12` (stereo not shown) [Compound 466], the negative logarithm of the IC50 (pIC50) is 6.00 to 6.60.
With `CC(C)C(CO)NC(=O)OCCc1c(-c2ccc(F)cc2)[nH]c2c(F)cc(F)cc12` (stereo not shown) [Compound 467] the figure was 6.00 to 6.60; with `O=C(NCC(O)CO)OCCc1c(-c2ccc(F)cc2)[nH]c2c(F)cc(F)cc12` (stereo not shown) [Compound 468], 6.00 to 6.60.
`O=C(N[C@H]1CCOC1)OCCc1c(-c2ccc(F)cc2)[nH]c2c(F)cc(F)cc12` [Compound 469]: the pIC50 was 6.00 to 6.60.
With `O=C(NC[C@H](O)CO)OCCc1c(-c2ccc(F)cc2)[nH]c2c(F)cc(F)cc12` [Compound 470] the figure was 6.00 to 6.60; with `O=C(NC(CO)CF)OCCc1c(-c2ccc(F)cc2)[nH]c2c(F)cc(F)cc12` (stereo not shown) [Compound 471], 6.00 to 6.60.
On to `CCC(O)CNC(=O)OCCc1c(-c2ccc(F)cc2)[nH]c2c(F)cc(F)cc12` (stereo not shown) [Compound 472], for which the pIC50 is 6.00 to 6.60.
As to `NC(=O)C1(NC(=O)OCCc2c(-c3ccc(F)cc3)[nH]c3c(F)cc(F)cc23)CC1` [Compound 473], the pIC50 was 6.00 to 6.60.
